pEC50, pIC50: −log10 of the molar value. Active and inactive are the calls of the source. The rule behind the calls is not given here.
Legend:
BV-2 [1] = test: Cytotoxicity against mouse BV-2 cells assessed as cell viability at 40 uM measured after 24 hrs by MTT assay; type: toxicity, cell-based; conditions: bv-2, 24 h
BV-2 [2] = test: Antineuroinflammatory activity in LPS induced mouse BV-2 cells assessed as inhibition of NO production pretreated for 3 hrs followed by LPS addition and measured after 21 hrs by griess reagent based assay; type: functional, cell-based
[3] = Cytotoxicity against mouse BV-2 cells assessed as cell viability at 40 uM measured after 24 hrs by MTT assay relative to control; type: toxicity, cell-based; conditions: read-out: Activity
BV-2 [4] = test: Antineuroinflammatory activity in LPS-induced mouse BV-2 cells assessed as reduction in IL-6 expression at 5 uM preincubated for 3 hrs followed by LPS stimulation and measured after 21 hrs by ELISA method relative to control; type: functional; design: scale not given: the % may be the effect or the level left; conditions: time 24 hrs
BV-2 [5] = test: Antineuroinflammatory activity in LPS-induced mouse BV-2 cells assessed as suppression of TLR4 expression at 20 uM preincubated for 3 hrs followed by LPS stimulation and measured after 21 hrs by Western blot analysis (reference value: 414+/-14%); type: functional; conditions: time 24 hrs
BV-2 [6] = test: Antineuroinflammatory activity in LPS-induced mouse BV-2 cells assessed as suppression of COX-2 expression at 20 uM preincubated for 3 hrs followed by LPS stimulation and measured after 21 hrs by Western blot analysis (reference value: 172 +/-9%); type: functional; conditions: time 24 hrs
BV-2 [7] = test: Antineuroinflammatory activity in LPS-induced mouse BV-2 cells assessed as upregulation of HO-1 expression at 20 uM preincubated for 3 hrs followed by LPS stimulation and measured after 21 hrs by Western blot analysis relative to control; type: functional; conditions: time 24 hrs
Danio rerio [8] = species on record: Danio rerio; test: Inhibition of LPS-induced ROS stress in Zebrafish embryo model assessed as reduction in ROS expression by measuring green fluorescence intensity at 15 to 30 uM pretreated for 2 hrs followed by LPS stimulation and measured after 12 hrs by H2DCF-DA staining based fluorescence microscopy analysis; type: functional, organism-based; conditions: dose 15-30 µM, time 14.0 hrs
BV-2 [9] = test: Antineuroinflammatory activity in LPS-induced mouse BV-2 cells assessed as reduction in PGE2 cytokine production at 5 uM preincubated for 3 hrs followed by LPS stimulation and measured after 21 hrs by ELISA method relative to control; type: functional; design: scale not given: the % may be the effect or the level left; conditions: time 24 hrs
[10] = Antioxidant activity assessed as DPPH radical scavenging activity by absorbance based analysis; type: functional
[11] = Antioxidant activity assessed as ABTS radical scavenging activity by absorbance based analysis; type: functional
BV-2 [12] = test: Antineuroinflammatory activity in LPS-induced mouse BV-2 cells assessed as reduction in IL-6 expression at 10 uM preincubated for 3 hrs followed by LPS stimulation and measured after 21 hrs by ELISA method relative to control; type: functional; design: scale not given: the % may be the effect or the level left; conditions: time 24 hrs
BV-2 [13] = test: Antineuroinflammatory activity in mouse BV-2 cells assessed as reversal of LPS-induced enlarged cell bodies measured after 24 hrs by microscope based analysis; type: functional
BV-2 [14] = test: Antineuroinflammatory activity in LPS induced mouse BV-2 cells assessed as inhibition of NO production at 20 uM pretreated for 3 hrs followed by LPS addition and measured after 21 hrs by griess reagent based assay relative to control; type: functional; design: scale not given: the % may be the effect or the level left; conditions: time 24 hrs
BV-2 [15] = test: Antineuroinflammatory activity in mouse BV-2 cells assessed as reversal of LPS-induced cell thickening measured after 24 hrs by microscope based analysis; type: functional
BV-2 [16] = test: Antineuroinflammatory activity in mouse BV-2 cells assessed as reversal of LPS-induced cell shortening measured after 24 hrs by microscope based analysis; type: functional
BV-2 [17] = test: Antineuroinflammatory activity in LPS-induced mouse BV-2 cells assessed as upregulation of CAT expression at 20 uM preincubated for 3 hrs followed by LPS stimulation and measured after 21 hrs by Western blot analysis relative to control; type: functional; conditions: time 24 hrs
BV-2 [18] = test: Antineuroinflammatory activity in LPS-induced mouse BV-2 cells assessed as upregulation of Nrf2 expression at 20 uM preincubated for 3 hrs followed by LPS stimulation and measured after 21 hrs by Western blot analysis relative to control; type: functional; conditions: time 24 hrs
BV-2 [19] = test: Antineuroinflammatory activity in LPS-induced mouse BV-2 cells assessed as reduction in TNF-alpha expression at 10 uM preincubated for 3 hrs followed by LPS stimulation and measured after 21 hrs by ELISA method relative to control; type: functional; design: scale not given: the % may be the effect or the level left; conditions: time 24 hrs
BV-2 [20] = test: Inhibition of ROS production in LPS-induced mouse BV-2 cells as decrease in intracellular ROS production preincubated for 3 hrs followed by LPS stimulation and measured after 21 hrs by DCFH-DA staining based microscopic analysis relative to control; type: functional, cell-based; conditions: dose 5-20 µM, time 24.0 hrs
[21] = Inhibition of ROS production in LPS-induced mouse BV-2 cells as decrease in intracellular ROS production at 10 uM preincubated for 3 hrs followed by LPS stimulation and measured after 21 hrs by DCFH-DA staining based microscopic analysis relative to control; type: functional; conditions: time 24 hrs
[22] = Inhibition of ROS production in LPS-induced mouse BV-2 cells as decrease in intracellular ROS production at 20 uM preincubated for 3 hrs followed by LPS stimulation and measured after 21 hrs by DCFH-DA staining based microscopic analysis relative to control; type: functional; conditions: time 24 hrs
BV-2 [23] = test: Antineuroinflammatory activity in LPS-induced mouse BV-2 cells assessed as downregulation of keap1 expression at 20 uM preincubated for 3 hrs followed by LPS stimulation and measured after 21 hrs by Western blot analysis relative to control; type: functional; conditions: time 24 hrs
BV-2 [24] = test: Antineuroinflammatory activity in LPS-induced mouse BV-2 cells assessed as decrease in ratio of nuclear p65 to cytoplasmic p65 at 20 uM preincubated for 3 hrs followed by LPS stimulation and measured after 21 hrs by Western blot analysis relative to control; type: functional; design: scale not given: the % may be the effect or the level left
BV-2 [25] = test: Antineuroinflammatory activity in LPS-induced mouse BV-2 cells assessed as reduction in PGE2 cytokine production at 10 uM preincubated for 3 hrs followed by LPS stimulation and measured after 21 hrs by ELISA method relative to control; type: functional; design: scale not given: the % may be the effect or the level left; conditions: time 24 hrs
BV-2 [26] = test: Antineuroinflammatory activity in LPS-induced mouse BV-2 cells assessed as reduction in PGE2 cytokine production at 20 uM preincubated for 3 hrs followed by LPS stimulation and measured after 21 hrs by ELISA method relative to control; type: functional; design: scale not given: the % may be the effect or the level left; conditions: time 24 hrs
BV-2 [27] = test: Antineuroinflammatory activity in LPS-induced mouse BV-2 cells assessed as reduction in IL-6 expression at 20 uM preincubated for 3 hrs followed by LPS stimulation and measured after 21 hrs by ELISA method relative to control; type: functional; design: scale not given: the % may be the effect or the level left; conditions: time 24 hrs
BV-2 [28] = test: Antineuroinflammatory activity in LPS-induced mouse BV-2 cells assessed as reduction in TNF-alpha expression at 5 uM preincubated for 3 hrs followed by LPS stimulation and measured after 21 hrs by ELISA method relative to control; type: functional; design: scale not given: the % may be the effect or the level left; conditions: time 24 hrs
BV-2 [29] = test: Antineuroinflammatory activity in LPS-induced mouse BV-2 cells assessed as suppression of iNOS expression at 20 uM preincubated for 3 hrs followed by LPS stimulation and measured after 21 hrs by Western blot analysis (reference value: 524 +/-15%); type: functional; conditions: time 24 hrs
[30] = Inhibition of ROS production in LPS-induced mouse BV-2 cells as decrease in intracellular ROS production at 5 uM preincubated for 3 hrs followed by LPS stimulation and measured after 21 hrs by DCFH-DA staining based microscopic analysis relative to control; type: functional; conditions: time 24 hrs
BV-2 [31] = test: Antineuroinflammatory activity in LPS-induced mouse BV-2 cells assessed as reduction in TNF-alpha expression at 20 uM preincubated for 3 hrs followed by LPS stimulation and measured after 21 hrs by ELISA method relative to control; type: functional; design: scale not given: the % may be the effect or the level left; conditions: time 24 hrs
BV-2 [32] = test: Antineuroinflammatory activity in LPS-induced mouse BV-2 cells assessed as suppression of TAK1 expression at 20 uM preincubated for 3 hrs followed by LPS stimulation and measured after 21 hrs by Western blot analysis (reference value: 225+/-10%); type: functional; conditions: time 24 hrs
BV-2 [33] = test: Antineuroinflammatory activity in LPS-induced mouse BV-2 cells assessed as suppression of p-IkappaBalpha/IkappaBalpha ratio at 20 uM preincubated for 3 hrs followed by LPS stimulation and measured after 21 hrs by Western blot analysis (reference value: 123+/-8%); type: functional
Danio rerio [34] = species on record: Danio rerio; test: Inhibition of LPS-induced ROS stress in Zebrafish embryo model assessed as reduction in ROS expression by measuring green fluorescence intensity at 30 uM pretreated for 2 hrs followed by LPS stimulation and measured after 12 hrs by H2DCF-DA staining based fluorescence microscopy analysis; type: functional, organism-based; conditions: time 14.0 hrs

## COC(=O)c1cccc2nc3c([C@H](OC(=O)c4ccc(Br)cc4)[C@@H](C)C(=O)OC)cccc3nc12
BV-2 [1]
  Activity: Toxic

## CC(=O)NCCC(=O)Nc1cccs1
BV-2 [2]
  pIC50: 4.76
[3]
  viability at 24 h, 40 µM: > 98%

## COC(=O)[C@H](C)[C@@H](O)c1cccc2nc3c(C(=O)O)cccc3nc12
BV-2 [4]
  Activity: 20%
BV-2 [2]
  pIC50: 5.10
BV-2 [5]
  Activity: 73%
BV-2 [6]
  Activity: 105%
BV-2 [7]
  Activity: 54%
Danio rerio [8]
  inhibition: Active
BV-2 [9]
  Activity: 34%
[10]
  pEC50: 2.72
[11]
  pEC50: 3.05
BV-2 [12]
  Activity: 38%
BV-2 [13]
  Activity: Dose-Dependent Effect
BV-2 [14]
  Activity: 70%
BV-2 [15]
  Activity: Dose-Dependent Effect
BV-2 [16]
  Activity: Dose-Dependent Effect
BV-2 [17]
  Activity: 10%
BV-2 [18]
  Activity: 67%
BV-2 [19]
  Activity: 33%
BV-2 [20]
  inhibition: Dose-Dependent Effect
[21]
  inhibition at 10 µM: 30%
[22]
  inhibition at 20 µM: 66%
BV-2 [23]
  Activity: 36%
BV-2 [24]
  Activity: 60%
BV-2 [25]
  Activity: 47%
BV-2 [26]
  Activity: 62%
BV-2 [27]
  Activity: 49%
BV-2 [28]
  Activity: 10%
[3]
  viability at 24 h, 40 µM: > 98%
BV-2 [29]
  Activity: 303%
[30]
  inhibition at 5 µM: 8%
BV-2 [31]
  Activity: 47%
BV-2 [32]
  Activity: 38%
BV-2 [33]
  Activity: 36%

## O=C1CCCCN1Cc1ccco1
BV-2 [2]
  pIC50: < 4.70
[3]
  viability at 24 h, 40 µM: > 98%

## CSc1nc(NC/C=C(/C)CO)c2ncn([C@@H]3O[C@H](COC(C)=O)[C@@H](O)[C@H]3O)c2n1
BV-2 [2]
  pIC50: < 4.70
[3]
  viability at 24 h, 40 µM: > 98%

## COC(=O)C[C@@H](O)c1cccc2nc3c(C(=O)OC)cccc3nc12
BV-2 [2]
  pIC50: 5.08
[3]
  viability at 24 h, 40 µM: > 98%

## COC(=O)c1cccc2nc3c([C@H](O)[C@@H](C)C(=O)OC)cccc3nc12
BV-2 [2]
  pIC50: 5.08
[3]
  viability at 24 h, 40 µM: > 98%

## CC(=O)NCC(=O)c1c[nH]c2ccccc12
BV-2 [2]
  pIC50: < 4.70
[3]
  viability at 24 h, 40 µM: > 98%

## O=C(O)c1ccc[nH]1
BV-2 [2]
  pIC50: 4.71
[3]
  viability at 24 h, 40 µM: > 98%

## CC(=O)NCCc1c[nH]c2ccccc12 [NB-ACETYLTRYPTAMINE]
BV-2 [2]
  pIC50: < 4.70
[3]
  viability at 24 h, 40 µM: > 98%

## COC(=O)c1cccc2nc3ccccc3nc12
BV-2 [2]
  pIC50: 5.07
[3]
  viability at 24 h, 40 µM: > 98%

## O=C1CCCN1Cc1ccco1
BV-2 [2]
  pIC50: < 4.70
[3]
  viability at 24 h, 40 µM: > 98%

## C[C@@H]1C[C@H]2[C@@H]3CCC4=CC(=O)C=C[C@]4(C)[C@@]3(F)[C@@H](O)C[C@]2(C)[C@@]1(O)C(=O)CO
Danio rerio [34]
  inhibition: inactive

## O=C(O)c1cccc2nc3ccccc3nc12 [PHENAZINE-1-CARBOXYLIC ACID]
BV-2 [2]
  pIC50: 5.08
[3]
  viability at 24 h, 40 µM: > 98%

## CC(=O)OC[C@H]1O[C@@H](n2cnc3c(N)ncnc32)[C@H](O)[C@@H]1O
BV-2 [2]
  pIC50: < 4.70
[3]
  viability at 24 h, 40 µM: > 98%

## CSC(=N)N
BV-2 [2]
  pIC50: 5.12

## O=c1c(O)c(-c2ccc(O)c(O)c2)oc2cc(O)cc(O)c12 [QUERCETIN]
BV-2 [2]
  pIC50: 5.01

## COC(=O)c1cccc2nc3c([C@@H](C)O)cccc3nc12
BV-2 [2]
  pIC50: 5.07
[3]
  viability at 24 h, 40 µM: > 98%

## CC(C)C[C@@H]1NC(=O)[C@H](Cc2c[nH]c3ccccc23)NC1=O
BV-2 [2]
  pIC50: < 4.70
[3]
  viability at 24 h, 40 µM: > 98%

## COC(=O)c1cc2c([nH]c3ccccc32)c(-c2ccc(CO)o2)n1
BV-2 [1]
  Activity: Toxic

## O=C1N[C@@H](Cc2c[nH]c3ccccc23)C(=O)N2CCC[C@@H]12 [BREVIANAMIDE F]
BV-2 [2]
  pIC50: < 4.70
[3]
  viability at 24 h, 40 µM: > 98%

## COC(=O)c1cccc2nc3c([C@H](O)[C@H](C)C(=O)OC)cccc3nc12
BV-2 [2]
  pIC50: 5.09
[3]
  viability at 24 h, 40 µM: > 98%

Reference: ChEMBL document CHEMBL5584315, “Evaluation of Phenazine Derivatives from the Lichen-Associated Streptomyces flavidovirens as Potent Antineuroinflammatory Agents In Vitro and In Vivo” (J Nat Prod, 2024)
